In series [1] the test system is Colorectal cancer mouse tumor models (CT26 tumor model). Kind of series: In vivo tumor growth inhibition. To be noted: CT26 tumor mice, 200 μg doxorubicin i.v. three times at intervals of two days, over 33 days, versus PBS blank group. On the procedure: Experiments were conducted to compare and investigate the ability of doxorubicin-conjugated dextran-based nanoparticles whether the nanoparticles could be used as a therapeutic agent capable of inhibiting tumor growth. Colorectal cancer mouse tumor models (CT26 tumor model) were used as tumor models in the experiments. 5×10^6 cells were injected into the flank of mice, and after 10 days, the tumors were visually recognized, and the mice were used for the experiments. The experiments were started by dividing the animal models into a blank group treated with PBS, a group treated with free doxorubicin (free DOX), and a group treated with doxorubicin-conjugated PEG-DNP (DOX@PEG-DNP)). The number of mice corresponding to each group was three, and each administration material was administered to the mouse tumor models via intravenous injection three times at intervals of two days. Here, the amounts of doxorubicin administered to the group treated with free doxorubicin and the group treated with doxorubicin-conjugated PEG-DNP (DOX@PEG-DNP) were 200 μg.
The size of tumors and the weight of mice in the tumor model were checked over 33 days, and the measurement results were monitored and compared. […] As time passed, there was a slight difference in body weight among the groups, but this was thought to be due to the difference of tumor size in the respective groups.

The format of series [2] is in vivo. To be noted: CT26 tumor mice, 200 μg doxorubicin i.v. three times at intervals of two days, over 33 days.

“Also recorded” adds a separate entry of the source.

`COc1cccc2c1C(=O)c1c(O)c3c(c(O)c1C2=O)C[C@@](O)(C(=O)CO)C[C@@H]3O[C@H]1C[C@H](N)[C@H](O)[C@H](C)O1` [free doxorubicin, doxorubicin]: the tumor growth inhibition result in series [1] is listed as “the tumor growth rate of only one of three mice was not inhibited; also recorded: surely inhibited the tumor growth rate compared with the blank group”. Moreover, in series [2], the body weight change entry is “the body weight was not rapidly reduced”.

Source of the values: US10954348B2, “Biocompatible nanoparticle and use thereof” (KYUNGPOOK NATIONAL UNIVERSITY INDUSTRY-ACADEMIC COOPERATION …, priority 2016, dated 2021).
